Results published in patent US6872719B1, “Phenylalanine enamide derivatives” (Celltech R & D Limited, priority 2002, dated 2005).

Molecular target: T1, α4β1 integrin (Homo sapiens, UniProt P05556+P13612)
T1 construct: 2.5×10^5 Jurkat cells in the presence or absence of titrated test compounds; endogenous in cells; host or cells: Jurkat cells
Experiment: α4β1 Integrin-Dependent Jurkat Cell Adhesion to VCAM-Ig
Assay type: cell-based
Details: inhibition of Jurkat cell adhesion to 2d VCAM-1-hFc
Experimental: α4β1 Integrin-Dependent Jurkat Cell Adhesion to VCAM-Ig
96 well NUNC plates were coated with F(ab)2 fragment goat anti-human IgG Fcγ-specific antibody [Jackson Immuno Research 109-006-098: 100 μl at 2 μg/ml in 0.1M NaHCO3, pH 8.4], overnight at 4°. The plates were washed (3×) in phosphate-buffered saline (PBS) and then blocked for 1 h in PBS/1% BSA at room temperature on a rocking platform. After washing (3× in PBS) 35 ng/ml of purified 2d VCAM-1-hFc diluted in PBS/1% BSA was added and the plates left for 60 minutes at room temperature on a rocking platform. The plates were washed (3× in PBS) and the assay then performed at 37° for 30 min in a total volume of 200 μl containing 2.5×10^5 Jurkat cells in the presence or absence of titrated test compounds.
Each plate was washed (2×) with medium and the adherent cells were fixed with 100 μl methanol for 10 minutes followed by another wash. 100 μl 0.25% (w/v) Rose Bengal (Sigma R4507) in PBS was added for 5 minutes at room temperature and the plates washed (3×) in PBS. 100 μl 50% (v/v) ethanol in PBS was added and the plates left for 60 min after which the absorbance (570 nm) was measured.

T1 sequence (P13612 34-1032): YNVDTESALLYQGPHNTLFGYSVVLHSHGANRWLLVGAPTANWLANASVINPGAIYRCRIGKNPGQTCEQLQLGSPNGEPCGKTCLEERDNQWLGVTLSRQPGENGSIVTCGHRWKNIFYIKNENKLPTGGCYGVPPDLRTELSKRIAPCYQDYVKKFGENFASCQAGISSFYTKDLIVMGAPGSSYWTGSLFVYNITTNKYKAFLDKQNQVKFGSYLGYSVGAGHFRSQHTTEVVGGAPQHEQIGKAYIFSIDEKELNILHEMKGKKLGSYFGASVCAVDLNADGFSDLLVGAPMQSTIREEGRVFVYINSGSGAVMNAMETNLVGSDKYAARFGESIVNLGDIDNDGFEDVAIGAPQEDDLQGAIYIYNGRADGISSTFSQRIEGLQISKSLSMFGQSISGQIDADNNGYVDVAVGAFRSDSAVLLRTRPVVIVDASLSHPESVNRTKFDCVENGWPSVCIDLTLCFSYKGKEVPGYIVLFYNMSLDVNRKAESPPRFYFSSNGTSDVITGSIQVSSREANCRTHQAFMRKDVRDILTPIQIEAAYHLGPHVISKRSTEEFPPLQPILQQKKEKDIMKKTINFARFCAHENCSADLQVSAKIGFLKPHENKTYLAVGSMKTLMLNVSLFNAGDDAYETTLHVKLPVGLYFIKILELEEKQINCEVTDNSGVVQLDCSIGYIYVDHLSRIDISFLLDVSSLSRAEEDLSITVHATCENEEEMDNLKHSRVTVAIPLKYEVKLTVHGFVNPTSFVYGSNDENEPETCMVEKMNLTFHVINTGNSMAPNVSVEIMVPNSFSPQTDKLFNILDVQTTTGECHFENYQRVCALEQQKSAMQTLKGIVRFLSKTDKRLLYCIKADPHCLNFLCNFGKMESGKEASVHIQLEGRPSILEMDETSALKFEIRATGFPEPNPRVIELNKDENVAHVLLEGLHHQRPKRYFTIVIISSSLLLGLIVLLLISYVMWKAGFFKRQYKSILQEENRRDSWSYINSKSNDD
T1 sequence (P05556 21-798): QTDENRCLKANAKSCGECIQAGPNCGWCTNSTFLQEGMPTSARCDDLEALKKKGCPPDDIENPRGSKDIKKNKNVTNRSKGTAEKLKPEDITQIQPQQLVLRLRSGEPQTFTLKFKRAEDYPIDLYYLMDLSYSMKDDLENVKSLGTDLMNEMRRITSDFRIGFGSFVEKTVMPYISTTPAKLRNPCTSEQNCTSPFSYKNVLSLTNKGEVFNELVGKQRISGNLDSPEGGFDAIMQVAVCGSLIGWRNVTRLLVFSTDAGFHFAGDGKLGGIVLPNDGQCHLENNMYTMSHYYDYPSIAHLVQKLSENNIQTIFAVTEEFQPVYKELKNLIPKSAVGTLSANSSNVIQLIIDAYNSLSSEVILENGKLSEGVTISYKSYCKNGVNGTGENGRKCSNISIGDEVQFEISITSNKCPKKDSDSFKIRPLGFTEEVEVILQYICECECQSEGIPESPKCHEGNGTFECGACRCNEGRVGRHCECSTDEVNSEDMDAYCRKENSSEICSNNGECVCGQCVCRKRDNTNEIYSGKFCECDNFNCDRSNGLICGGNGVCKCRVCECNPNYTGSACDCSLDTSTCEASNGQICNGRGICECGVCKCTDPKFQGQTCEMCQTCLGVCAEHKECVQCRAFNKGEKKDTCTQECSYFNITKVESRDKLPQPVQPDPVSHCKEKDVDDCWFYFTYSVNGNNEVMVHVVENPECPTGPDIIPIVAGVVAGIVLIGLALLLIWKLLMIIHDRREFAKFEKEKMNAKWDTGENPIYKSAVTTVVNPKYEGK

IC50: 4 nM
Compound: O=C(Nc1ccc(C[C@H](NC2=C(Br)C(=O)C23CCCCC3)C(=O)OCCO)cc1)c1c(Cl)cncc1Cl [Example 1, 2-Hydroxyethyl (2S)-2-(2-bromo-3-oxo-spiro[3,5]non-1-en-1-ylamino)-3-{4-[(3,5-dichlorolsonicotinoyl)amino]phenyl}propanoate]
